# According to patent US10710986B2, “PD-1/PD-L1 inhibitors” (Gilead Sciences, Inc., priority 2018, dated 2020):
# pIC50: −log10 of the molar value.
# Biological target: PD-1/PD-L1 (Homo sapiens (Human), UniProt Q9NZQ7)
# Assay: PD-1/PD-L1 biochemical protein-protein interaction assay (ALPHA)
# Conditions: 0.3 nM His tagged PD-L1, 2.5 nM biotinylated Fc-PD-1, 60 minutes at 25° C., read-out: IC50 PD-L1-PD1
# Experimental: Binding of the protein pairs is measured using a bead based Amplified Luminescent Proximity Homogeneous Assay (ALPHA) platform. Binding of each protein pair results in proximity of the donor and acceptor beads which leads to an increase in ALPHA signal. […] Assays are performed in 25 mM Hepes (pH 7.4), 150 mM NaCl, 3.4 mM EDTA, 0.005% Tween 20, and 0.01% BSA. […] After an assay reaction time of 60 minutes at 25° C., binding was measured with addition of 20 μg/mL ALPHA assay acceptor beads (anti-His coated) and 20 µg/mL ALPHA assay donor beads (streptavidin coated). IC50 values were calculated from the fit of the dose-response curves to a four-parameter equation.
# PD-1/PD-L1, sequence (Q9NZQ7 19-238): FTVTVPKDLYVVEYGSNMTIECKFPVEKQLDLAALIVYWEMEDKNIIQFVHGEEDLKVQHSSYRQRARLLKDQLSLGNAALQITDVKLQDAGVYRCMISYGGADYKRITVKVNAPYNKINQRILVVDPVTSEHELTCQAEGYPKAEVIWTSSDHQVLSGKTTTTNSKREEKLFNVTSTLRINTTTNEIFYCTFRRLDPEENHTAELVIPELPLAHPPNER
row,pIC50,Structure (SMILES)
1,9.89,CN(C)c1nc(-c2cccc(-c3cccc(-c4cnc(CN5CC6(CNC(=O)C6)C5)c(N(C)C)n4)c3Cl)c2Cl)cnc1CN1CC2(CNC(=O)C2)C1 [compound 101]
2,9.65,CN(C)c1nc(-c2cccc(-c3cccc(-c4cnc(CN5CC6(CNC(=O)C6)C5)c(Cl)n4)c3Cl)c2Cl)cnc1CN1CC2(CNC(=O)C2)C1 [compound 102]
3,10.15,CN(C)c1nc(-c2cccc(-c3cccc(-c4cnc(CN5CC6(CCC(=O)N6)C5)c(N(C)C)n4)c3Cl)c2Cl)cnc1CN1CC2(CCC(=O)N2)C1 [compound 103]
4,10.11,CN(C)c1nc(-c2cccc(-c3cccc(-c4cnc(CN5CC6(CCC(=O)N6)C5)c(Cl)n4)c3Cl)c2Cl)cnc1CN1CC2(CCC(=O)N2)C1 [compound 104]
5,9.52,CN(C)c1nc(-c2cccc(-c3cccc(-c4cnc(CNC[C@@H]5CCC(=O)N5)c(N(C)C)n4)c3Cl)c2Cl)cnc1CNC[C@@H]1CCC(=O)N1 [compound 105]
6,9.44,CN(C)c1nc(-c2cccc(-c3cccc(-c4cnc(CNC[C@@H]5CCC(=O)N5)c(Cl)n4)c3Cl)c2Cl)cnc1CNC[C@@H]1CCC(=O)N1 [compound 106]
7,8.81,COC1CN(Cc2ncc(-c3cccc(-c4cccc(-c5cnc(CN6CC(OC)C6)c(Cl)n5)c4Cl)c3Cl)nc2Cl)C1 [compound 107]
8,9.32,OC1CN(Cc2ncc(-c3cccc(-c4cccc(-c5cnc(CN6CC(O)C6)c(Cl)n5)c4Cl)c3Cl)nc2Cl)C1 [compound 108]
9,9.23,O=C1CC2(CN1)CN(Cc1ncc(-c3cccc(-c4cccc(-c5cnc(CN6CC7(CNC(=O)C7)C6)c(Cl)n5)c4Cl)c3Cl)nc1Cl)C2 [compound 109]
10,9.49,O=C1CCC2(CN(Cc3ncc(-c4cccc(-c5cccc(-c6cnc(CN7CC8(CCC(=O)N8)C7)c(Cl)n6)c5Cl)c4Cl)nc3Cl)C2)N1 [compound 110]
11,9.53,O=C1CC[C@@H](CNCc2ncc(-c3cccc(-c4cccc(-c5cnc(CNC[C@@H]6CCC(=O)N6)c(Cl)n5)c4Cl)c3Cl)nc2Cl)N1 [compound 111]
12,10.12,COc1nc(-c2cccc(-c3cccc(-c4cnc(CN5CC(O)C5)c(OC)n4)c3Br)c2Br)cnc1CN1CC(O)C1 [compound 112]
13,9.68,COc1nc(-c2cccc(-c3cccc(-c4cnc(CNC[C@@H]5CCC(=O)N5)c(OC)n4)c3Br)c2Br)cnc1CNC[C@@H]1CCC(=O)N1 [compound 113]
14,10.19,COc1nc(-c2cccc(-c3cccc(-c4cnc(CN5CC6(CNC(=O)C6)C5)c(OC)n4)c3Cl)c2Cl)ccc1C1=NCCN1 [compound 114]
15,9.94,COc1nc(-c2cccc(-c3cccc(-c4cnc(CN5CC6(CCC(=O)N6)C5)c(OC)n4)c3Cl)c2Cl)ccc1C1=NCCN1 [compound 115]
16,10.19,COc1nc(-c2cccc(-c3cccc(-c4cnc(CN5CC(O)C5)c(OC)n4)c3Cl)c2Cl)ccc1C1=NCCN1 [compound 116]
17,9.55,COc1nc(-c2cccc(-c3cccc(-c4cnc(CNC[C@@H]5CCC(=O)N5)c(OC)n4)c3Cl)c2Cl)ccc1C1=NCCN1 [compound 117]
18,9.15,COc1nc(-c2cccc(-c3cccc(-c4cnc(CN5CC(F)C5)c(OC)n4)c3Cl)c2Cl)cnc1CN1CC(F)C1 [compound 118]
19,9.94,COc1nc(-c2cccc(-c3cccc(-c4cnc(C5=NCC(F)(F)CN5)c(OC)n4)c3Cl)c2Cl)cnc1C1=NCC(F)(F)CN1 [compound 119]
20,9.49,COc1nc(-c2cccc(-c3cccc(-c4cnc(CN5CC6(CNC(=O)C6)C5)c(OC)n4)c3Cl)c2Cl)cnc1CN1CC2(CNC(=O)C2)C1 [compound 120]
21,10.19,COc1nc(-c2cccc(-c3cccc(-c4cnc(C5=NC[C@H](C)N5)c(OC)n4)c3Cl)c2Cl)cnc1C1=NC[C@H](C)N1 [compound 121]
22,8.77,COc1cc(-c2cccc(-c3cccc(-c4cnc(CN)c(OC)n4)c3Cl)c2Cl)ccc1CN [compound 122]
23,9.95,COc1cc(-c2cccc(-c3cccc(-c4cnc(CN5CC6(CNC(=O)C6)C5)c(OC)n4)c3Cl)c2Cl)ccc1CN1CC2(CNC(=O)C2)C1 [compound 123]
24,9.72,COc1cc(-c2cccc(-c3cccc(-c4cnc(CN5CC6(CCC(=O)N6)C5)c(OC)n4)c3Cl)c2Cl)ccc1CN1CC2(CCC(=O)N2)C1 [compound 124]
25,9.65,COc1cc(-c2cccc(-c3cccc(-c4cnc(CNC[C@@H]5CCC(=O)N5)c(OC)n4)c3Cl)c2Cl)ccc1CNC[C@@H]1CCC(=O)N1 [compound 125]
26,9.57,"COc1nc(-c2cccc(-c3cccc(-c4cnc(CNC[C@@H]5CCC(=O)N5)c(OC)n4)c3Cl)c2Cl)ccc1CNC[C@@H]1CCC(=O)N1 [compound 126, (S)-5-((((6-(2,2′-dichloro-3′-(6-methoxy-5-(((((S)-5-oxopyrrolidin-2-yl)methyl)amino)methyl)pyrazin-2-yl)-[1,1′-biphenyl]-3-yl)-2-methoxypyridin-3-yl)methyl)amino)methyl)pyrrolidin-2-one]"
27,10.19,COc1nc(-c2cccc(-c3cccc(-c4cnc(C5=NCC(C)(C)N5)c(OC)n4)c3Cl)c2Cl)cnc1C1=NCC(C)(C)N1 [compound 127]

row,pIC50,Structure (SMILES)
1,9.25,COc1nc(-c2cccc(-c3cccc(-c4cnc(C5=NCC(O)CN5)c(OC)n4)c3Cl)c2Cl)cnc1C1=NCC(O)CN1 (stereo not drawn) [compound 128]
2,10.19,COc1nc(-c2cccc(-c3cccc(-c4cnc(C5=NC[C@@H](C)N5)c(OC)n4)c3Cl)c2Cl)cnc1C1=NC[C@@H](C)N1 [compound 129]
3,9.73,COc1nc(-c2cccc(-c3cccc(-c4cnc(CN5CC[C@@H](O)C5)c(OC)n4)c3Cl)c2Cl)cnc1CN1CC[C@@H](O)C1 [compound 130]
4,9.51,COc1nc(-c2cccc(-c3cccc(-c4cnc(CN5CC(O)C5)c(OC)n4)c3Cl)c2Cl)cnc1CN1CC(O)C1 [compound 131]
5,9.12,COc1nc(-c2cccc(-c3cccc(-c4cnc(CN5CC[C@H](O)C5)c(OC)n4)c3Cl)c2Cl)cnc1CN1CC[C@H](O)C1 [compound 132]
6,10.19,COc1nc(-c2cccc(-c3cccc(-c4cnc(C5=NC[C@H](CO)N5)c(OC)n4)c3Cl)c2Cl)cnc1C1=NC[C@H](CO)N1 [compound 133]
7,10.19,COc1nc(-c2cccc(-c3cccc(-c4cnc(C5=NC[C@@H](CO)N5)c(OC)n4)c3Cl)c2Cl)cnc1C1=NC[C@@H](CO)N1 [compound 134]
8,9.13,COc1nc(-c2cccc(-c3cccc(-c4cnc(CN)c(OC)n4)c3Cl)c2Cl)cnc1CN [compound 135]
9,9.83,COc1nc(-c2cccc(-c3cccc(-c4cnc(CN5CC6(CCC(=O)N6)C5)c(OC)n4)c3Cl)c2Cl)cnc1CN1CC2(CCC(=O)N2)C1 [compound 136]
10,9.77,COc1nc(-c2cccc(-c3cccc(-c4cnc(CNC[C@@H](O)CC(=O)O)c(OC)n4)c3Cl)c2Cl)cnc1CNC[C@@H](O)CC(=O)O [compound 137]
11,9.59,COc1nc(-c2cccc(-c3cccc(-c4cnc(CNCCO)c(OC)n4)c3Cl)c2Cl)cnc1CNCCO [compound 140]
12,10.19,COc1nc(-c2cccc(-c3cccc(-c4cnc(C5=NCCN5)c(OC)n4)c3Cl)c2Cl)cnc1C1=NCCN1 [compound 141]
13,9.70,COc1nc(-c2cccc(-c3cccc(-c4cnc(CN5CC[C@](C)(O)C5)c(OC)n4)c3Cl)c2Cl)cnc1CN1CC[C@](C)(O)C1 [compound 142]
14,9.39,COc1nc(-c2cccc(-c3cccc(-c4cnc(CN[C@@H]5CCOC5)c(OC)n4)c3Cl)c2Cl)cnc1CN[C@@H]1CCOC1 [compound 143]
15,9.62,COc1nc(-c2cccc(-c3cccc(-c4cnc(CN[C@H]5CCOC5)c(OC)n4)c3Cl)c2Cl)cnc1CN[C@H]1CCOC1 [compound 144]
16,10.00,COc1nc(-c2cccc(-c3cccc(-c4cnc(CN5CC(CO)C5)c(OC)n4)c3Cl)c2Cl)cnc1CN1CC(CO)C1 [compound 145]
17,9.89,COc1nc(-c2cccc(-c3cccc(-c4cnc(CN5CCC(C)(O)C5)c(OC)n4)c3Cl)c2Cl)cnc1CN1CCC(C)(O)C1 (stereo not drawn) [compound 146]
18,10.22,COc1nc(-c2cccc(-c3cccc(-c4cnc(CN5CC(C)(O)C5)c(OC)n4)c3Cl)c2Cl)cnc1CN1CC(C)(O)C1 [compound 147]
19,10.22,COc1nc(-c2cccc(-c3cccc(-c4cnc(CN5CC(C)(CO)C5)c(OC)n4)c3Cl)c2Cl)cnc1CN1CC(C)(CO)C1 [compound 148]
20,9.57,COc1nc(-c2cccc(-c3cccc(-c4cnc(CN[C@H]5C[C@H](CO)C5)c(OC)n4)c3Cl)c2Cl)cnc1CN[C@H]1C[C@H](CO)C1 [compound 149]
21,9.70,COc1nc(-c2cccc(-c3cccc(-c4cnc(CN[C@H]5C[C@@H](CO)C5)c(OC)n4)c3Cl)c2Cl)cnc1CN[C@H]1C[C@@H](CO)C1 [compound 150]
22,9.16,COc1nc(-c2cccc(-c3cccc(-c4ccc(CN5CC6(CCC(=O)N6)C5)c(C#N)c4)c3Cl)c2Cl)cnc1CNC[C@@H]1CCC(=O)N1 [compound 151]
23,10.14,COc1nc(-c2cccc(-c3cccc(-c4ccc(CNC[C@@H]5CCC(=O)N5)c(C#N)c4)c3Cl)c2Cl)cnc1CNC[C@@H]1CCC(=O)N1 [compound 152]
24,9.40,COc1nc(-c2cccc(-c3cccc(-c4ccc(CN5CC(O)C5)c(C#N)c4)c3Cl)c2Cl)cnc1CNC[C@@H]1CCC(=O)N1 [compound 153]
25,9.90,COc1nc(-c2cccc(-c3cccc(-c4ccc(CN5CC(C)(CO)C5)c(C#N)c4)c3Cl)c2Cl)cnc1CNC[C@@H]1CCC(=O)N1 [compound 154]
26,8.78,COc1nc(-c2cccc(-c3cccc(-c4cnc(CNC[C@@H]5CCC(=O)N5)c(OC)n4)c3Cl)c2Cl)ccc1CNCc1ccc2[nH]c(C)cc2c1 [compound 155]
27,10.08,COc1nc(-c2cccc(-c3cccc(-c4cnc(CNC[C@@H]5CCC(=O)N5)c(OC)n4)c3Cl)c2Cl)ccc1CN1CC(C)(CO)C1 [compound 156]
